Assay results from PubChem BioAssay (NCI).
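Here, GI50 denotes the concentration required for 50% inhibition of growth. Definition used: TGI = concentration required for complete inhibition of growth.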

Assays:
Assay in all cases: DTP human tumour cell line panel, 384-well format
T-47D breast = system: T-47D breast
DU-145 prostate = system: DU-145 prostate
SK-MEL-5 melanoma = system: SK-MEL-5 melanoma
COLO 205 colon = system: COLO 205 colon
SNB-75 CNS = system: SNB-75 CNS
MDA-MB-435 melanoma = system: MDA-MB-435 melanoma
OVCAR-4 ovarian = system: OVCAR-4 ovarian
SF-539 CNS = system: SF-539 CNS
MCF7 breast = system: MCF7 breast
NCI-H460 NSCLC = system: NCI-H460 NSCLC
HCC-2998 colon = system: HCC-2998 colon
HCT-15 colon = system: HCT-15 colon
PC-3 prostate = system: PC-3 prostate
SW-620 colon = system: SW-620 colon
786-0 renal = system: 786-0 renal
MOLT-4 leukemia = system: MOLT-4 leukemia
SF-295 CNS = system: SF-295 CNS
A549 NSCLC = system: A549 NSCLC
MALME-3M melanoma = system: MALME-3M melanoma
KM12 colon = system: KM12 colon
HT29 colon = system: HT29 colon
HS 578T breast = system: HS 578T breast
UO-31 renal = system: UO-31 renal
BT-549 breast = system: BT-549 breast
IGROV1 ovarian = system: IGROV1 ovarian
HCT-116 colon = system: HCT-116 colon
TK-10 renal = system: TK-10 renal
U251 glioblastoma = system: U251 glioblastoma
LOX IMVI melanoma = system: LOX IMVI melanoma

## Cn1nccc1Nc1nccc(-c2cc3c(s2)C(C)(C)N(CCN2CCOCC2)C3=O)n1
T-47D breast
  GI50: > 100 µM
  TGI: > 100 µM
DU-145 prostate
  GI50: 23.6 µM
  TGI: > 100 µM
SK-MEL-5 melanoma
  GI50: 0.619 µM
  TGI: > 100 µM
COLO 205 colon
  GI50: 0.194 µM
  TGI: 5.35 µM
SNB-75 CNS
  GI50: > 100 µM
  TGI: > 100 µM
MDA-MB-435 melanoma
  GI50: 0.402 µM
  TGI: 50.9 µM
OVCAR-4 ovarian
  GI50: > 100 µM
  TGI: > 100 µM
SF-539 CNS
  GI50: 28.2 µM
  TGI: > 100 µM
MCF7 breast
  GI50: 21.2 µM
  TGI: > 100 µM
NCI-H460 NSCLC
  GI50: 4.26 µM
  TGI: > 100 µM
HCC-2998 colon
  GI50: 0.308 µM
  TGI: 17.1 µM
HCT-15 colon
  GI50: 23.1 µM
  TGI: > 100 µM
PC-3 prostate
  GI50: 55.4 µM
  TGI: > 100 µM
SW-620 colon
  GI50: 0.756 µM
  TGI: > 100 µM
786-0 renal
  GI50: 90.9 µM
  TGI: > 100 µM
MOLT-4 leukemia
  GI50: 46 µM
  TGI: > 100 µM
SF-295 CNS
  GI50: > 100 µM
  TGI: > 100 µM
A549 NSCLC
  GI50: 2.45 µM
  TGI: > 100 µM
MALME-3M melanoma
  GI50: 0.0557 µM
  TGI: 0.296 µM
KM12 colon
  GI50: 1.69 µM
  TGI: > 100 µM
HT29 colon
  GI50: 0.618 µM
  TGI: > 100 µM
HS 578T breast
  GI50: 49.4 µM
  TGI: > 100 µM
UO-31 renal
  GI50: 9.2 µM
  TGI: > 100 µM
BT-549 breast
  GI50: 13.8 µM
  TGI: > 100 µM
IGROV1 ovarian
  GI50: 3.52 µM
  TGI: > 100 µM
HCT-116 colon
  GI50: 0.404 µM
  TGI: > 100 µM
TK-10 renal
  GI50: 3.46 µM
  TGI: > 100 µM
U251 glioblastoma
  GI50: 25.9 µM
  TGI: > 100 µM
LOX IMVI melanoma
  GI50: 0.345 µM
  TGI: 1.55 µM
